Here are results for four compounds from patent US12473298B2, “Amide compounds, preparation method therefor, and use thereof in the medical field” (Shanghai Synergy Pharmaceutical Sciences Co., Ltd., priority 2019, dated 2025).

The target of data set [1] is Mutant type EZH2(A677G) (Homo sapiens (Human), UniProt Q15910, A677G). The data set is described as follows: AlphaLISA, mutant type PRC2 complex EZH2(A677G). It is filed as biochemical. Particulars: read-out: Mutant type EZH2(A677G) IC59 Nanomoles per Liter. For orientation: Alpha assays give light when donor and acceptor beads are brought close together.
Mutant type EZH2(A677G), sequence (Q15910 whole entry A677G): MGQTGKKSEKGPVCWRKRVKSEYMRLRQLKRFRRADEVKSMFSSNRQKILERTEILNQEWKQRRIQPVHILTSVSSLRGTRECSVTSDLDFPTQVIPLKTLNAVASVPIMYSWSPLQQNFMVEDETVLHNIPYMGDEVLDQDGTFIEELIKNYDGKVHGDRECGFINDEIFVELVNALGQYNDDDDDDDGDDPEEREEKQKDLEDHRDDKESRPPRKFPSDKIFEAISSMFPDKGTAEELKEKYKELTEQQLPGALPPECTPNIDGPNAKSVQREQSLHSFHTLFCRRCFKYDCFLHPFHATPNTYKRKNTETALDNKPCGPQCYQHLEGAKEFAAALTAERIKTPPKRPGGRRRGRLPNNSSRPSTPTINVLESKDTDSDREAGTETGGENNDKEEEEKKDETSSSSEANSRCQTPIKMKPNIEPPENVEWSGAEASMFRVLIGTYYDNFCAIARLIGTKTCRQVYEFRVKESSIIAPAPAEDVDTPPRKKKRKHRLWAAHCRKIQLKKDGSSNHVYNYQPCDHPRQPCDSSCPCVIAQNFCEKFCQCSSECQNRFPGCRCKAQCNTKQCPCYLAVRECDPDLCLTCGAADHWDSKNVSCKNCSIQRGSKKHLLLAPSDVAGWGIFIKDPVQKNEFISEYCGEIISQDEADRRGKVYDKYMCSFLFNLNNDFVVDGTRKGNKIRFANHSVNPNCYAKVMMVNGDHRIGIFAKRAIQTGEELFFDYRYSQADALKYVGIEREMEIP
Mutant type EZH2(A677G), sequence (O75530 whole entry partner): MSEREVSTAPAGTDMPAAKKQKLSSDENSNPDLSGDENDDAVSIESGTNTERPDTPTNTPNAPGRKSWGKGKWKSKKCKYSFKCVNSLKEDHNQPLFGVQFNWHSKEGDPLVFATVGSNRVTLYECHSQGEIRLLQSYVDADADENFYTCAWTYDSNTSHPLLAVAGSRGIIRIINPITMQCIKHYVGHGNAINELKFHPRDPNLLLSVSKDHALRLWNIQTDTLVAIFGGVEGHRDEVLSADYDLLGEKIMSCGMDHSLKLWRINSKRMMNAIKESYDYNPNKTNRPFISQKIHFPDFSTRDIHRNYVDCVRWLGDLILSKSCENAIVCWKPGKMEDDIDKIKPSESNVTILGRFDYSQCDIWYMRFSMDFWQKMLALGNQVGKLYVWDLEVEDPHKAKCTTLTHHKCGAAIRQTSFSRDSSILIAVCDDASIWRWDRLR
Mutant type EZH2(A677G), sequence (Q15022 whole entry partner): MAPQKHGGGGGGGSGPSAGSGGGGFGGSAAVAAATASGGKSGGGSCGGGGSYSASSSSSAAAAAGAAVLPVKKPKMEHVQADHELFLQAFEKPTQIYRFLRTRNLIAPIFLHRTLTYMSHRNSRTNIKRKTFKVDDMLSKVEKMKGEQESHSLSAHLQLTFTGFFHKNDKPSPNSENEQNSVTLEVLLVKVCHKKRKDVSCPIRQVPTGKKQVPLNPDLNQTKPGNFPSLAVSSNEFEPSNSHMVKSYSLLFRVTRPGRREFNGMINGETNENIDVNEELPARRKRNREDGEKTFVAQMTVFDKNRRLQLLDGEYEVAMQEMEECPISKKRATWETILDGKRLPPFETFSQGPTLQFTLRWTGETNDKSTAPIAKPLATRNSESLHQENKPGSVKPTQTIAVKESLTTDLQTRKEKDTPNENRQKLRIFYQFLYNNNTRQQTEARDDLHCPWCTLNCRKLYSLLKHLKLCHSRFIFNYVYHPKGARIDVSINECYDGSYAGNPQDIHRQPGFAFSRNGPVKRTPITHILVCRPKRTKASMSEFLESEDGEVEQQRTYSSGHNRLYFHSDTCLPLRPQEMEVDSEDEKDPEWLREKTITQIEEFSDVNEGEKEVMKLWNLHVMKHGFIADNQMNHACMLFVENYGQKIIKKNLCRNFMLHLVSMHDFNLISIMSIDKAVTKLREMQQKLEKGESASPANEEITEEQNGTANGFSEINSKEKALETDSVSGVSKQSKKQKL
Mutant type EZH2(A677G), sequence (Q09028 whole entry partner): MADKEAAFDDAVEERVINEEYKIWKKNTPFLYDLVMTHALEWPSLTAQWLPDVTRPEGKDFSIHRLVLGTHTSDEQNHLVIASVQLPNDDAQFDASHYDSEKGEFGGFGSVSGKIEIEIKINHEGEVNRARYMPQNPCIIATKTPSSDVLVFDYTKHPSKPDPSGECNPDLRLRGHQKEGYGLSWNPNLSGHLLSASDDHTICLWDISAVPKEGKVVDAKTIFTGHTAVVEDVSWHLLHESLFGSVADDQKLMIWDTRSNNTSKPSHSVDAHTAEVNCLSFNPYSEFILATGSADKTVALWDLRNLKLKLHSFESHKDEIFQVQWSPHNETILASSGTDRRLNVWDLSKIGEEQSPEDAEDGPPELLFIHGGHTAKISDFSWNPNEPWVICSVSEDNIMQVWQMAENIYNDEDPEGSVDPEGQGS
Mutant type EZH2(A677G), sequence (Q6ZN18 whole entry partner): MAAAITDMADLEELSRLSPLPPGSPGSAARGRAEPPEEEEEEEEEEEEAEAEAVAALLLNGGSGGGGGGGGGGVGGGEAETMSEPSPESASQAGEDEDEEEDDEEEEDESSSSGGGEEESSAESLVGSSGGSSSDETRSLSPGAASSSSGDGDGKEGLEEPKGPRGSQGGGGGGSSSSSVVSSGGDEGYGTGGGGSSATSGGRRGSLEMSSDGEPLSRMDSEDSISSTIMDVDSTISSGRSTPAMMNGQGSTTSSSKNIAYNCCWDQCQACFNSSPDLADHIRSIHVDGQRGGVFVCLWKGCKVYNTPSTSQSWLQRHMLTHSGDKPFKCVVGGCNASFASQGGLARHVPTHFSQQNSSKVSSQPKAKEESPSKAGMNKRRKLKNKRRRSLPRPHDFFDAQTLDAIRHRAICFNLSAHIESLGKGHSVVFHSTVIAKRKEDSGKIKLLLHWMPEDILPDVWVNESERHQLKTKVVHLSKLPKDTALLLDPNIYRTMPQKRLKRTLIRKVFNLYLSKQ
In data set [2] the test system is human diffuse large B-cell lymphoma cells (Karpas 422 cell). The data set is described as follows: Karpas 422 cell proliferation, Calcein AM staining. It is filed as cell-based. Particulars: data of 14th day, read-out: Karpas422 Proliferation IC50 Nanomoles per Liter.
Data set [3] relates to human diffuse large cell lymphoma B lymphocytes (Pfeiffer cell). The data set is described as follows: Pharmacodynamic experiment, Pfeiffer transplanted tumor model in mice. It is filed as in vivo, mice (beige SCID). Particulars: intragastrically, once a day for 21 days; for inhibition in vivo at 100 mg/kg: Mus musculus, Pfeiffer, po, 504 h, read-out: inhibited tumor growth.
Source text: Under sterile conditions, human diffuse large cell lymphoma B lymphocytes (Pfeiffer cell) in logarithmic growth stage were digested and mixed with Matrigel and transplanted subcutaneously on the right back of mice (beige SCID) with severe combined immunodeficiency disease.

The target of data set [4] is Mutant type EZH2(Y641F) (Homo sapiens (Human), UniProt Q15910, Y641F). The data set is described as follows: AlphaLISA, mutant type PRC2 complex EZH2(Y641F). It is filed as biochemical. To be noted: read-out: Mutant type EZH2(Y641F) IC50 Nanomoles per Liter.
Mutant type EZH2(Y641F), sequence (Q15910 whole entry Y641F): as the sequence (Q15910 whole entry A677G) above, with Y641F, G677A counted along it
Mutant type EZH2(Y641F), sequence (O75530 whole entry partner): as the sequence (O75530 whole entry partner) above
Mutant type EZH2(Y641F), sequence (Q15022 whole entry partner): as the sequence (Q15022 whole entry partner) above
Mutant type EZH2(Y641F), sequence (Q09028 whole entry partner): as the sequence (Q09028 whole entry partner) above
Mutant type EZH2(Y641F), sequence (Q6ZN18 whole entry partner): as the sequence (Q6ZN18 whole entry partner) above
Data set [5] has as its system human diffuse large cell lymphoma B lymphocytes (Pfeiffer cell). The data set is described as follows: Pfeiffer cell proliferation, Calcein AM staining. In kind it is cell-based. Particulars: data of 14th day, read-out: Pfeiffer Proliferation IC50 Nanomoles per Liter.
Source text: The diffuse large cell lymphoma B lymphocytes (Pfeiffer cells) were collected and counted when growing well.
The target in data set [6] is Mutant type EZH2(Y641N) (Homo sapiens (Human), UniProt Q15910, Y641N). The data set is described as follows: AlphaLISA, mutant type PRC2 complex EZH2(Y641N). It is filed as biochemical. Particulars: read-out: Mutant type EZH2(Y641N) IC50 Nanomoles per Liter.
Mutant type EZH2(Y641N), sequence (Q15910 whole entry Y641N): as the sequence (Q15910 whole entry A677G) above, with Y641N, G677A counted along it
Mutant type EZH2(Y641N), sequence (O75530 whole entry partner): as the sequence (O75530 whole entry partner) above
Mutant type EZH2(Y641N), sequence (Q15022 whole entry partner): as the sequence (Q15022 whole entry partner) above
Mutant type EZH2(Y641N), sequence (Q09028 whole entry partner): as the sequence (Q09028 whole entry partner) above
Mutant type EZH2(Y641N), sequence (Q6ZN18 whole entry partner): as the sequence (Q6ZN18 whole entry partner) above
Data set [7] concerns the target wild-type EZH2 (Homo sapiens (Human), UniProt Q15910). The data set is described as follows: radiometric assay, activity to wild-type EZH2 of PRC2. Particulars: read-out: Wild-type EZH2 IC50 Nanomoles per Liter.
Procedure: 25 μL of reaction solution was transferred to a scintillation plate, which was incubated at room temperature for 1 hour (h) and washed with deionized water and 0.1% Tween 20 for three times. A PerkinElmer liquid scintillation/luminescence counter was used to read the value, and GraphPad Prism 5 was used to calculate the median inhibitory concentration (IC50) of the compounds.
Data set [8] in a line: Pharmacokinetic experiment in rats. In kind it is in vivo, SD rats. Particulars: for AUC: read-out: Area Curve (AUC, ng/mL · h). The protocol:
A certain amount of compound was weighted and dissolved in 0.1% Tween under vortex and ultrasound, and 0.5% carboxymethyl cellulose sodium (CMC-NA) solution was added to form a uniform solution.

pIC50: −log10 of the molar value. Like-named read-outs stand apart in the source and are kept apart here.

wild-type EZH2, sequence (Q15910 whole entry): as the sequence (Q15910 whole entry A677G) above, with G677A counted along it
wild-type EZH2, sequence (O75530 whole entry partner): as the sequence (O75530 whole entry partner) above
wild-type EZH2, sequence (Q15022 whole entry partner): as the sequence (Q15022 whole entry partner) above

Take `CCN(c1cc(-c2ccc3c(c2)C2(CCOCC2)C(=O)N3C)cc(C(=O)NCc2c(C)cc(C)[nH]c2=O)c1C)C1CCOCC1` [Example 83, N-((4,6-dimethyl-2-oxo-1,2-dihydropyridin-3-yl)methyl)-3-(ethyl(tetrahydro-2H-pyran-4-yl)amino)-2-methyl-5-(1-methyl-2-oxo-2′,3′,5′,6′-tetrahydrospiro[dihydroindole-3,4′-pyran]-5-yl)benzamide]: the pIC50 is 9.04 in data set [1]; 8.32 in data set [2] (Homo sapiens, KARPAS-422); 8.83 in data set [4]; 8.37 in data set [5] (Homo sapiens, Pfeiffer); 9.42 in data set [6]; 8.74 in data set [7]. Further, the inhibition in vivo at 100 mg/kg in data set [3] was determined as 98%.
Regarding `CCN(c1cc(-c2ccc3c(c2)NC(=O)C32CCC(C)(O)CC2)cc(C(=O)NCc2c(C)cc(C)[nH]c2=O)c1C)C1CCOCC1` (centres unmarked) [Example 93, N-((4,6-dimethyl-2-oxo-1,2-dihydropyridin-3-yl)methyl)-3-(ethyl(tetrahydro-2H-pyran-4-yl)amino)-5-(4-hydroxy-4-methyl-2′-oxospiro[cyclohexane-1,3′-dihydroindole]-6′-yl)-2-methylbenzamide], the pIC50 in data set [2] (Homo sapiens, KARPAS-422) was 8.58; in data set [4], 9.24; in data set [5] (Homo sapiens, Pfeiffer) it was 8.86; in data set [6] it was 9.40; in data set [7], 8.95. Besides, the inhibition in vivo at 100 mg/kg in data set [3] came out at 94%.
Regarding “3-(ethyl(tetrahydro-2H-pyran-4-yl)amino)-5-(6-fluoro-2,2′,3,3′,5′,6′-hexahydrospiro[indene-1,4′-pyran]-5-yl)-N-((4-methoxy-6-methyl-2-oxo-1,2-dihydropyridin-3-yl)methyl)-2-methylbenzamide 9-1 and 3-(ethyl(tetrahydro-2H-pyran-4-yl)amino)-5-(5-fluoro-2,2′,3,3′,5′,6′-hexahydrospiro[indene-1,4′-pyran]-6-yl)-N-((4-methoxy-6-methyl-2-oxo-1,2-dihydropyridin-3-yl)methyl)-2-methylbenzamide 9-2 [Example 9]”, in data set [1], the IC50 is 0.37 nM. Besides, the pIC50 is 8.74 in data set [2], 9.28 in data set [4], 9.38 in data set [5] and 9.15 in data set [7]. Moreover, in data set [3] (100 mg/kg), the inhibited tumor growth came out at 97%. Moreover, the “Area Curve (AUC, ng/mL · h)” value came out at 926.01 ng·h/mL in data set [8] (rats, Intravenous-Dose 4 mg/kg) and 1522.36 ng·h/mL in data set [8] (rats, Oral-Dose 20 mg/kg). Besides, the “Half life T1/2, h)” value in data set [8] (rats, Intravenous-Dose 4 mg/kg) came out at 1.54 h. Moreover, the “Blood Drug level (Cmax, ng/mL)” value in data set [8] (rats, Oral-Dose 20 mg/kg) stood at 437.25 ng/mL. Besides, the “Bioavailability (P %)” value in data set [8] (rats, oral 20 mg/kg vs intravenous 4 mg/kg) stood at 32.88%.
The term bioavailability denotes dose-corrected exposure relative to a reference, in per cent. As to `CCN(c1cc(-c2ccc3c(c2)C2(CCOCC2)C(=O)N3C)cc(C(=O)NCc2c(OC)cc(C)[nH]c2=O)c1C)C1CCN(CC(F)(F)F)CC1` [Example 109, 3-(Ethyl(1-(2,2,2-trifluoroethyl)piperidin-4-yl)amino)-N-((4-methoxy-6-methyl-2-oxo-1,2-dihydropyridin-3-yl)methyl)-2-methyl-5-(1-methyl-2-oxo-2′,3′,5′,6′-tetrahydrospiro[dihydroindole-3,4′-pyran]-5-yl)benzamide], the pIC50 is 9.20 in data set [1]; 8.67 in data set [2] (Homo sapiens, KARPAS-422); 9.14 in data set [4]; 8.87 in data set [5] (Homo sapiens, Pfeiffer); 9.09 in data set [7]. Further, the inhibition in vivo at 100 mg/kg in data set [3] was determined as 101%. For the same compound, the AUC in data set [8] (male, SD, rat, plasma, rats, Intravenous-Dose 4 mg/kg) was 966 ng·h/mL; in data set [8] (male, SD, rat, plasma, rats, Oral-Dose 20 mg/kg), 1610 ng·h/mL. The half-life in data set [8] (male, SD, rat, plasma; rats, Intravenous-Dose 4 mg/kg; read-out: Half life T1/2, h) (converted)) is 1.12 h. The Cmax in data set [8] (male, SD, rat, plasma, rats, Oral-Dose 20 mg/kg, read-out: Blood Drug level (Cmax, ng/mL)) worked out at 456 ng/mL. Moreover, the bioavailability in data set [8] (male, SD, rat, plasma, rats, oral 20 mg/kg vs intravenous 4 mg/kg, read-out: Bioavailability (P %)) stood at 53.3%.
